Results as given in the METLIN SMRT retention time set (Domingo-Almenara et al. 2019).

Test: gradient 5% acetonitrile 3 min, to 50% in 2 min, to 85% in 15 min, held 3 min, 100 µL/min
Conditions: column: Zorbax Extend-C18 2.1 x 50 mm; eluents: water / acetonitrile, 0.1% formic acid
Method in brief: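 Retention times of pure standards were taken from adduct peaks that were selected by computer and manually inspected. Over 3 months, mixtures of ~100 molecules were run by HPLC–quadrupole time-of-flight mass spectrometry in positive and negative ionization mode. The Zorbax Extend-C18 column (2.1 × 50 mm, 1.8 μm) ran at 100 μL/min in water and acetonitrile, each containing 0.1% formic acid, with 40 μL dead volume and 900 μL dwell volume.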

RP-LC retention time	SMILES
706 s	CCCn1ncc(N2CCC(C(=O)NCc3cccc(F)c3)CC2)cc1=O
1020 s	CCc1nc(-c2csc(S(=O)(=O)N3CCCC(C(=O)Nc4ccccc4Cl)C3)c2)no1 (stereo unspecified)
784 s	O=C(C1=NN(Cc2ccccc2)c2ccccc2S1(=O)=O)N1CCCC1
940 s	Cc1sc(NC(=O)C2CCCCC2)nc1-c1ccc2c(c1)NC(=O)C(C)O2 (stereo unspecified)
1040 s	Cc1cc(Cl)ccc1NC(=O)Cn1cccc1-c1nnc(C2CCC2)o1
735 s	Cc1onc(C(=O)N2CCc3c(c(-c4nncn4CC4CC4)nn3C)C2)c1Cn1cc(Cl)cn1
727 s	CCOc1ccc(NC(=O)N2CCN(c3cc(C)nc(Nc4ccc(C)cc4)n3)CC2)cc1
703 s	COc1ccc(-c2nnc(COc3ccc(NC(=O)C4CCN(C(C)=O)CC4)cc3)o2)cc1
955 s	Cc1cc2nn(CC(=O)Nc3cccc(C(C)C)c3)c(=O)n2c(-c2ccccc2)n1
821 s	CC(C)(Oc1ccc(Cl)cc1)C(=O)Nc1c(-c2ccc(F)cc2)nc2ccccn12
676 s	Nc1cc(C2CCN(C(=O)Cc3ccccc3F)CC2)no1
1230 s	CCOc1ccc(-n2c(N(CC)CC)nc3cc(C(=O)OC)ccc3c2=O)cc1
736 s	Cc1nn(C(C)C(=O)NCCN2CCCCCC2)c(=O)c2c(-n3cccc3)n(-c3ccccc3)nc12 (stereo unspecified)
590 s	CN(C1CCC1)C1CCc2nn(Cc3ccccc3)c(=O)n2CC1 (stereo unspecified)
932 s	COC(=O)c1c(-c2ccc(C)cc2)csc1NC(=O)C1CCN(C(C)=O)CC1
704 s	CCc1c(C(=O)O)nnn1-c1cccc(OC)c1
708 s	Cc1cccc(Nc2nc(CC(=O)NCc3ccccc3OC(F)(F)F)cs2)n1
581 s	COc1ccc(-n2nc(C(N)=O)c(=O)cc2OC)cc1
831 s	CCCc1nnc(SCC(=O)NC2CCCCCC2)n1-n1cccc1
863 s	CCCn1cc(S(=O)(=O)NCc2ccccc2)c2cccnc21
969 s	Cc1ccc(C)c(NC(=O)CN2C(=O)C(C(=O)N3CCCC3)Sc3ccccc32)c1 (stereo unspecified)
661 s	CC(C)NC(=O)N1CCCC(c2nc(C3CCOCC3)no2)C1 (stereo unspecified)
1200 s	Cc1ccc(C2c3[nH]c4ccccc4c3CCN2C(=O)c2cccs2)cc1 (stereo unspecified)

RP-LC retention time	SMILES
609 s	CN1C(=O)C2CCCCN2c2ccc(C(=O)NCCN3CCCCC3)cc21 (stereo unspecified)
860 s	CC(=O)Nc1ccc(OCc2cc(C(=O)NC3CCC(C)CC3)no2)cc1 (stereo unspecified)
818 s	O=C(NC1CC1)[C@@H]1C[C@H](Oc2ccccc2)CN1C(=O)CC1CCCC1
855 s	Cc1ccc(Cn2c(=O)n(CCNC(=O)CC(C)(C)C)c3ncccc32)cc1
737 s	Cc1nc(OCC(=O)Nc2cccc(C)c2C)c2ccccc2n1
565 s	CC(=O)N1CC[C@]2(CO)CN(C(=O)c3ccsc3)C[C@@H]2C1
582 s	O=C(c1ccc(OC(F)(F)F)cc1)N1CCN(CCn2cccn2)CC1
979 s	O=C(Cn1nc(N2CCSCC2)c2ccccc2c1=O)Nc1ccccc1Cl
1040 s	COc1ccc(N2CC(c3nc(-c4ccc(C(F)(F)F)cc4)no3)CC2=O)cc1 (stereo unspecified)
849 s	COCCCNC(=O)CN1C(=O)CC(c2ccc(Br)s2)=Nc2ccccc21
790 s	Cc1cc(C2CCCN2C(=O)Cc2cccc(F)c2)no1 (stereo unspecified)
860 s	CCCNC(=O)c1cn(-c2cc(-c3nc(C(C)C)no3)ccn2)cn1
662 s	O=C(Cn1c(=O)c2nncn2c2ncccc21)NCc1ccccc1Cl
668 s	O=C(Cn1nc2c3ccc(F)cc3ncn2c1=O)NCc1ccc(F)cc1
671 s	COc1cccc(S(=O)(=O)N2CCN(c3cnn4c(C)nnc4c3)CC2)c1
761 s	COc1ccc(CNC(=O)Cn2c(=O)c3c(C(=O)N4CCCCC4)cc(C)nc3n(C)c2=O)cc1
856 s	COc1ccc(N2C=C(C(=O)N3CCCC3)S(=O)(=O)c3ccc(Cl)cc32)cc1
1280 s	Cc1cccc(-c2nc(Cn3nnc(-c4nc(-c5ccccc5)no4)c3C)c(C)o2)c1
1280 s	CCC(C(=O)N1CCC(C)CC1)n1cnc2onc(-c3ccc(Cl)cc3)c2c1=O (stereo unspecified)
752 s	Cc1cc(C)cc(NC(=O)NCC2CCOCC2)c1
721 s	CSc1ccc(CCNC(=O)c2nc(N3CCOCC3)c3ccccc3n2)cc1
646 s	CN1CCN(c2ccc(-c3ccc(NC(=O)c4cc(Cl)ccc4Cl)cc3)nn2)CC1
843 s	O=C(NCCc1cccs1)c1cc2n(n1)CCCN(Cc1cccc(F)c1)C2=O

RP-LC retention time	SMILES
987 s	CS(=O)(=O)c1nc2ccc(NS(=O)(=O)c3ccc4c(c3)CCC4)cc2s1
1170 s	CCC(C)NC(=O)Cn1nc(-c2nc(-c3cccc(C)c3)no2)c2ccccc21 (stereo unspecified)
826 s	CCOC(=O)C1CCCN(C(=O)Cn2c3ccccc3c3cnn(C)c(=O)c32)C1 (stereo unspecified)
1040 s	Cc1csc(-c2cc(S(=O)(=O)N3CCCCC3)c(C)n2C)n1
730 s	Cc1ccc(-c2cn3cccnc3n2)cc1NC(=O)c1ccc(Br)cc1
1110 s	Cc1cccc(-c2noc(CN3C(=O)C(C)Oc4ccccc43)n2)c1 (stereo unspecified)
1070 s	Cc1ccc(-c2cc(-c3cc(-c4ccc(C)cc4C)n[nH]3)[nH]n2)c(C)c1
996 s	Cc1ccc(C)c(Nc2c(-c3ccc(N(C)C)cc3)nc3ncccn23)c1
715 s	CCc1ccc(S(=O)(=O)N2CCC(n3cnnc3C)CC2)cc1
634 s	COCC(C)(O)CNC(=O)c1ccc(F)c(F)c1 (stereo unspecified)
1030 s	O=C(Nc1ccccc1)N1CCCC1c1nc(-c2cccc(Cl)c2)no1 (stereo unspecified)
896 s	Clc1ccc(-c2nc(-c3ccc4nncn4c3)no2)cc1
593 s	O=C(Cn1c(=O)c2cccn2c2ccccc21)NCCCN1CCCC1
677 s	O=C(COc1ccc(F)cc1)NCC1CCOCC1
964 s	O=C1C(NS(=O)(=O)c2ccc(C(F)(F)F)cc2)CCN1c1ccc(F)cc1 (stereo unspecified)
1180 s	Cc1ccc(-c2noc(CN3C(=O)C(C)Oc4ccccc43)n2)cc1C (stereo unspecified)
723 s	CC(C)c1cccc(NS(=O)(=O)c2cc3n(c2)CCCNC3=O)c1
742 s	CS(=O)(=O)N1CCCc2cc(C(=O)NCc3ccco3)ccc21
621 s	CC(C)CN1CCN(C(=O)c2ccc3[nH]c4c(c3c2)CN(C(=O)C2CCC2)CC4)CC1
578 s	O=C(NCc1cccnc1)N(c1ccccc1)c1ccccc1
1050 s	O=C(C1CCN(S(=O)(=O)c2ccc(-c3noc(C4CC4)n3)cc2)CC1)N1CCc2ccccc2C1
1070 s	O=C(NC12CC3CC(CC(C3)C1)C2)C1CCN(S(=O)(=O)c2cccs2)CC1
1040 s	Cc1ccc(S(=O)(=O)N2CCc3c(c(-c4nnc(-c5ccc(F)cc5)o4)nn3C)C2)cc1Cl

RP-LC retention time	SMILES
792 s	CCc1nc2onc(C)c2c(=O)n1CC(=O)NCc1ccccc1F
754 s	COCCCN(C(=O)c1ccc(F)cc1)C(C)C(=O)c1c(C)[nH]c(C(=O)OC)c1C (stereo unspecified)
699 s	CC(C)CCN1CCC(N2CCN(S(=O)(=O)Cc3cccc(Cl)c3)CC2)C1=O (stereo unspecified)
908 s	Cc1cc(Nc2ncccc2S(N)(=O)=O)ccc1Cl
691 s	CC(=O)N1CCc2cc(C)c(S(=O)(=O)NCC3CCCO3)cc21 (stereo unspecified)
1170 s	CC1CCN(S(=O)(=O)c2ccc(-c3nnc(C(=O)NC(C)CCc4ccccc4)o3)cc2)CC1 (stereo unspecified)
1060 s	O=S(=O)(c1ccc2c(c1)CCC2)N1CCCn2nc(-c3cccs3)cc2C1
689 s	CCOCCCNC(=O)Cn1c(=O)c2cccn2c2ccccc21
1060 s	Cc1ccc(CN(Cc2ccc(-c3ccccc3S(=O)(=O)NC#N)cc2)C(=O)c2ccccc2Cl)cc1
658 s	Cc1ccc(Cl)cc1NC(=O)CN1CCN(c2ccc(F)cc2)CC1
926 s	CC(C)CC(=O)N1CC(c2nc(-c3ccc(F)cc3)no2)C2(CCOCC2)C1 (stereo unspecified)
770 s	COc1ccc(CCNC(=O)C(=O)NCc2ccc(F)cc2)cc1OC
686 s	Cn1ncc2c(N3CCOCC3)nc(C(=O)NCc3cccs3)nc21
1030 s	COc1ccc(CNC(=O)C2(C)CCN(S(=O)(=O)c3cccc(Cl)c3C)CC2)cc1
1020 s	COc1cc(-c2noc(Cn3nc(-c4ccc(Br)cc4)ccc3=O)n2)cc(OC)c1OC
717 s	Cn1c(C2CCN(C(=O)Nc3cccc(C(F)(F)F)c3)CC2)cc(=O)n2nccc12
749 s	COc1cccc(C(=O)NCCCn2cccc2)c1
887 s	CCOC(=O)c1c(C)n(C)c2ccccc12
590 s	O=C(c1ccc2c(c1)OCO2)N1CCC2(CC1)CC(O)CCO2 (stereo unspecified)
804 s	Cc1ccc(CN(C)C(=O)NC(C)C)s1
1040 s	O=S(=O)(Cc1nc(-c2ccc(Br)cc2)no1)c1ccccc1
838 s	Fc1ccccc1CNc1cc(-n2cccn2)ncn1
